Assay results from US7470658B2, “Methods for inhibiting tumor metastasis, and peptides useful therefor” (Burnham Institute for Medical Research, priority 1999, dated 2008).
Values belong to the compound of their own block, whether it stands above or below them.

Key:
E-selectin:IgG = details: comparison value for the heptapeptides; read-out: IC50 by ELISA binding assay using biotinylated sLe^a-PAA and E-selectin:IgG; cited from earlier work
E-selectin = test: Inhibition of binding between sLe^x-PAA-biotin and E-selectin:IgG by phage or peptides (ELISA); details: synthetic peptides (FIG. 1E); read-out: half inhibition value (IC50) of binding between sLe^x and E-selectin
Chain of E-selectin (P16581 22-175 limits assumed): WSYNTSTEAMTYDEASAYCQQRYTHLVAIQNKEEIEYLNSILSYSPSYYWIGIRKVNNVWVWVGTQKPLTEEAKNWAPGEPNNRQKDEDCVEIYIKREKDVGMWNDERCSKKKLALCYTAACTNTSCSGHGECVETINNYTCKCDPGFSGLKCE
Procedure: The inhibition of binding between sLe^x and E-selectin:IgG by phage or peptides was assayed by adding five hundred ng of polymeric sLe^x (sLe^x-PAA-biotin, GlycoTech, Rocksville, Md.) to wells in the presence or absence of phage or peptide. After incubating at room temperature for 1 hour, wells were washed with TBS containing CaCl2, and sLe^x-PAA-biotin bound to each selectin was determined using the peroxidase conjugated avidin and peroxidase substrate ABTS (Pierce, Rockford, Ill.). The OD405 was read in an ELISA reader. The synthetic peptides used were linear IELLQAR (SEQ ID NO:7), cyclic CIELLQARC (SEQ ID NO:13) (cysteins linked by disulfide bonds are underlined), and IELLQAR (SEQ ID NO:7) multivalent (Fmoc eight branch), which was synthesized by AnaSpec, Inc. (San Jose, Calif.).

mouse B16 melanoma cells = test: In vivo lung metastasis of B16 melanoma cells transfected with fucosyltransferase-III; details: peptide 500 mg/100 ml/mouse i.v. 20 minutes before 2×10^5 cells; foci counted after 3 weeks (FIG. 2B)
Procedure: (§1) The effect of IELLQAR (SEQ ID NO:7) phage and peptides on E-selectin mediated tumor metastasis was examined using mouse B16 melanoma cells or human melanoma MeWo cells transfected with fucosyltransferase-III, an enzyme which synthesizes sLe^x, as described in Kukowska-Latallo et al., Genes & Develop., 4:1288-1303 (1990). […] To test whether the heptapeptide sequence IELLQAR (SEQ ID NO:7) could inhibit metastasis in vivo, mice were injected with IELLQAR (SEQ ID NO:7) phage and with B16 cells through a tail vein and assayed for the presence of metastatic foci.
(§2) Phage (1×10^8 transducing units/100 ml/mouse) or peptide (500 mg/100 ml/mouse), each of which was equivalent to an amount 100 times the concentration required to inhibit binding between HL-60 to E-selectin determined by the in vitro assay described above in Example II (FIG. 1F), were injected intravenously into female mice (C57 black) that were 5-6 weeks old. The control phage lacks a consensus heptapeptide. The control peptide used in these experiments is MAPS alanine. After 20 minutes, metastatic tumor cells (2×10^5 cells) were administered through a tail vein. After 3 weeks, the numbers of metastatic foci appearing in the lung were counted.

[1] = system: human melanoma MeWo cells; test: In vivo lung metastasis of human melanoma MeWo cells transfected with fucosyltransferase-III; details: peptide 500 mg/100 ml/mouse i.v. 20 minutes before cells; after 3 weeks (FIG. 2C)
Procedure: as §1, §2

[2] = system: human lung carcinoma HAL-8 cells; test: In vivo lung metastasis of human lung carcinoma HAL-8 cells; set-up: species or system mouse; details: peptide pre-treatment i.v.
Procedure: as §2
The effect of IELLQAR (SEQ ID NO:7) peptide was assayed in the same manner described above.

[3] = system: vascular endothelial cells of the lung; test: Mouse lung histochemical analysis after intravenous injection of biotinylated peptide; assay type: in vivo; details: i.v. injection, one hour, peroxidase conjugated avidin
Excerpt: Control peptide corresponding to MAPS alanine and IELLQAR (SEQ ID NO:7) peptide were biotinylated with biotin succinamide (Sigma, St. Louis, Mo.) and injected intravenously into mice. One hour after injection, mice were sacrificed, and tissues were examined histochemically using peroxidase conjugated avidin (Cappel, West Chester, Pa.) by the peroxidase method (Vectastatin ABC kit, Vector, Burlingame, Calif.).

[4] = system: B16 melanoma cells in the lung; test: Immunohistochemistry of B16 melanoma cells in the lung (anti-melanoma HMB45); assay type: in vivo, mouse; details: pre-treated mice, one hour after administration of B16 cells
Procedure: Next, the immunohistochemistry in the mouse lung of melanoma cells injected intravenously was assayed. Mice were injected intravenously with either control phage, IELLQAR (SEQ ID NO:7) phage, control peptide, or IELLQAR (SEQ ID NO:7) peptide, followed by injection with B16 melanoma cells. One hour after administering B16 melanoma cells, the lungs were fixed in 4% paraformaldehyde and paraffin sections were prepared. The melanoma cells in the lung were visualized by immunostaining using anti-melanoma HMB45 mouse monoclonal IgG1 antibody (DAKO, Carpinteria, Calif.) by the peroxidase method (Vectastatin ABC kit, Vector, Burlingame, Calif.).

Compound: CC(=O)N[C@H]1[C@H](O[C@H]2[C@@H](O)[C@@H](CO)OC(O)[C@@H]2O)O[C@H](CO)[C@@H](O[C@@H]2O[C@H](CO)[C@H](O)[C@H](O[C@]3(C(=O)O)C[C@H](O)[C@@H](NC(C)=O)[C@H]([C@H](O)[C@H](O)CO)O3)[C@H]2O)[C@@H]1O[C@@H]1O[C@@H](C)[C@@H](O)[C@@H](O)[C@@H]1O (some centres unmarked) [sLe^x oligosaccharide, NeuNAcα2→3Galβ1→4(Fucα1→3)GlcNAcβ1→3Gal]
IC50 (E-selectin:IgG): 550 µM

IC50 (E-selectin): 10 µM
Compound: IELLQAR (SEQ ID NO:7) multivalent (Fmoc eight branch) [multivalent IELLQAR peptide, IELLQAR multivalent peptide, Fmoc eight branch MAPS, synthesized by AnaSpec]
metastasis of B16 melanoma to the lung, peptide pre-treatment (mouse B16 melanoma cells): effective in preventing metastasis
metastases of human melanoma MeWo cells to the lung [1]: inhibited efficiently
metastases of human lung carcinoma HAL-8 cells to the lung [2]: inhibited efficiently

Compound: IELLQAR [IELLQAR peptide, synthetic IELLQAR peptide injected into mice]
staining of biotinylated peptide on lung vascular endothelium [3]: detected on the vascular surface epithelium of the lung
state of B16 melanoma cells in lung tissue sections [4]: non-adherent and appeared apoptotic

IC50 (E-selectin): 200 µM
Compound: IELLQAR [linear heptapeptide]
